The text below walks through data of PMC2365111, “Cytotoxicity of Poly(Phenolic)Sulfonates and Their Sodium Salts in L1210 Lymphoid Leukemia Cells” (Metal-Based Drugs, 1998).

This experiment addresses T1, Ribonucleoside reductase (Mus musculus, UniProt P07742).
T1 construct: preparing the appropriate L1210 cell homogenates or subcellular fractions; endogenous in cells; host or cells: L1210 murine lymphoid leukemia cells, homogenate or subcellular fraction
T1 sequence (P07742 1-792): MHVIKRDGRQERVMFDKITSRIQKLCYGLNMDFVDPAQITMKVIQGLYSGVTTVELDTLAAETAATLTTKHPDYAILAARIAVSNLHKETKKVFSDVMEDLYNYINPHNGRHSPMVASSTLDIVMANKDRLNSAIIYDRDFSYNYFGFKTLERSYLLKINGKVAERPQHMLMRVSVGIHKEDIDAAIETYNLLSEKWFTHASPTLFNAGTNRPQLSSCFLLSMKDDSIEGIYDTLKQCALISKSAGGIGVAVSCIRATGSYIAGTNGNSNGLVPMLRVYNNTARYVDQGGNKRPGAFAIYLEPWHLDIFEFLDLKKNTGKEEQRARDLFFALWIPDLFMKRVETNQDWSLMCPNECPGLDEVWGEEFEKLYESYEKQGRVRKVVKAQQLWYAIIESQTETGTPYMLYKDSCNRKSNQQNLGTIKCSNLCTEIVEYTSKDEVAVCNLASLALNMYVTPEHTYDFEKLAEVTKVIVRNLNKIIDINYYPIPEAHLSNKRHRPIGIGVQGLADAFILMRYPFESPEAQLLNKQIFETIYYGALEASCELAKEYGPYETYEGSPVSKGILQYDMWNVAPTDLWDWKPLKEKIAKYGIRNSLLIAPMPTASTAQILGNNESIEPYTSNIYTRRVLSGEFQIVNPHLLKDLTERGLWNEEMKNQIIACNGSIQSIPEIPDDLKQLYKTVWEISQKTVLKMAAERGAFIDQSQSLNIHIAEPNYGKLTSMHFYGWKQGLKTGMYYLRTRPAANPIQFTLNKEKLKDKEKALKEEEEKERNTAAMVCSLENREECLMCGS
T1 sequence (P11157 1-390 partner): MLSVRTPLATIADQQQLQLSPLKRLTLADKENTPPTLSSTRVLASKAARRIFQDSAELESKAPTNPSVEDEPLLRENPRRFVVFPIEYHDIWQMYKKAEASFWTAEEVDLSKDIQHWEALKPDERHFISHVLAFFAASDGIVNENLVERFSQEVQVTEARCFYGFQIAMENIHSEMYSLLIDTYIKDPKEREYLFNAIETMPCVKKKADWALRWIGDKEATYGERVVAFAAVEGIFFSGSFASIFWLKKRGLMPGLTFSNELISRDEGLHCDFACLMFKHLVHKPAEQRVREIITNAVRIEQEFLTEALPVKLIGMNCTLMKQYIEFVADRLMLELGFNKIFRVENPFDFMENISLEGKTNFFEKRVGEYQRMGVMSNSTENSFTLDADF
Kind of experiment: Ribonucleoside reductase activity, L1210. The following applies: 60 min, N=6. The class given is biochemical. From the text: CYTOTOXlCITY OF POLY(PHENOLIC)SULFONATES AND THEIR SODIUM SALTS IN L1210 LYMPHOID LEUKEMIA CELLS Fei Wang, Amy E. Warren, Cheryl R. Barnes and Iris H. Hall* Division of Medicinal Chemistry and Natural Products University of North Carolina Chapel Hill, N.C. […] Because ofthese properties it was surmised that these poly(phenolic)sulfonated compounds may have antineoplastic activity. METHODS Source of Compounds Test compounds were supplied by GeneLabs, Inc. [Redwood City, CA [Table 1]. Radioisotopes were obtained from New England Nuclear [Dupont, Boston, MA]. Substrates and co-factors were purchased om Sigma Chemical Co., [St Louis, MO]. Pentosan sulfate and other antineoplastic standards were obtained from Sigma Chemical Co. Tumor lines were obtained from American Type Culture Collection [Rockville, MD]. 147 Vol. 5, No. 3, 1998 Cytotoxicity ofSodium Poly(Phenolic)Sulfonates in L1210 Lymphoid Leukemia Cells Table 1 Structures of Poly(phenolic)sulfonate Compounds O2R" n Compound R' R" n MW # G1-2041 H OH 8 1489.46 G1-2029 H OH 6 1117.09 G1-2030 H OH 4 744.73 GI-2021 CH3 ONa 8 1777.5 G1-2057 CH3 ONa 4 888.75 GI-2158 CH3 ONa 6 1333.13 GI-2063 OCH3 ONa 8 2001.65 G1-2042 OAc ONa 8 2017.73 Cytotoxicity Poly(phenolic)sulfonates were tested for cytotoxic activity by homogenizing drug in 0.05% Tween 80/H20 to give a mg/ml stock concentration. These solutions were sterilized by passing them through an acrodisc ([…]). The following cell lines were maintained by literature techniques: murine L1210 lymphoid leukemia, P-388 lymphocytic leukemia, rat UMR 106 osteosarcoma, human Tmolt3 acute lymphoblastic T cell leukemia, HUT-8 lymphoma, HeLa-S suspended cervical carcinoma, HeLa solid cervical carcinoma, KB epidermoid nasopharynx, A431 epidermoid carcinoma, colorectal adenocarcinoma SW480, HCT-8 ileocecal adenocarcinoma, lung bronchogenic MB-9812, A549 lung carcinoma, and glioma HS683. Geran et al.'s protocol was used to assess the cytotoxicity of the compounds and standards in each cell line. Cell numbers were determined by the trypan blue exclusion technique. Solid tumor cytotoxicity was determined by Leibovitz et al. 's method utilizing crystal violeeOH and read at 562 nm (Molecular Devices). Values for cytotoxicity were expressed as EDs0 g/ml, i.e. the concentration ofthe compound inhibiting 50% ofcell growth. A value of less than 4 µg/ml was required for significant activity ofgrowth inhibition. Incorporation Studies Incorporation of labeled precursors into 3H-DNA, 3H -RNA and 3H -protein for 10 L1210 cells was obtained. The concentration response for inhibition of DNA, RNA and protein synthesis of the compounds at 25, 50 and 100 l.tM was determined for 60 min incubations. Incorporation of 14C -glycine (53.0 mCi/mmol) into purines was obtained by the method of Cadman et al.[12]. Incorporation of 4C- formate (53.0 mCi/mmol) into pyrimidines was determined by the method of Christopherson et al.[13]. Enzyme Assays Inhibition of various enzyme activities was performed by first preparing the appropriate L1210 cell homogenates or subcellular fractions, then adding the drug to be tested during the enzyme assay. For the concentration response studies, inhibition of enzyme activity was determined at 25, 50 and 100 l.tM of compounds G1-2021, G1-2029, GI-2041 and G1-2063 after 60 min incubations. DNA polymerase Ot activity was determined in cytoplasmic extracts isolated by Eichler et aL's method. The DNA polymerase assay was described by Sedwick et al.[15] using 3H-TTP. Messenger-, ribosomal- and transfer-RNA polymerase enzymes were isolated with different concentrations of ammonium sulfate; individual RNA polymerase activities were determined using 3H -UTP 16,17]. Ribonucleoside reductase activity was measured using 4C -CDP with dithioerythritol. The deoxyribonucleotides 4C -dCDP were separated from the ribonucleotides by TLC on PEI plates. […]

Regarding `O=S(=O)(O)c1cc2c(O)c(c1)Cc1cc(S(=O)(=O)O)cc(c1O)Cc1cc(S(=O)(=O)O)cc(c1O)Cc1cc(S(=O)(=O)O)cc(c1O)Cc1cc(S(=O)(=O)O)cc(c1O)Cc1cc(S(=O)(=O)O)cc(c1O)C2` [GI-2029], the Ribonucleoside reductase is 130+5% of Control (25 μM), 130+6% of Control (50 μM) and 141+5% of Control (100 μM).

`COc1c2cc(S(=O)(=O)[O-])cc1Cc1cc(S(=O)(=O)[O-])cc(c1OC)Cc1cc(S(=O)(=O)[O-])cc(c1OC)Cc1cc(S(=O)(=O)[O-])cc(c1OC)Cc1cc(S(=O)(=O)[O-])cc(c1OC)Cc1cc(S(=O)(=O)[O-])cc(c1OC)Cc1cc(S(=O)(=O)[O-])cc(c1OC)Cc1cc(S(=O)(=O)[O-])cc(c1OC)C2.[Na+].[Na+].[Na+].[Na+].[Na+].[Na+].[Na+].[Na+]` [GI-2021]: the Ribonucleoside reductase is, setting by setting: (25 μM) 158+6% of Control; (50 μM) 124+5% of Control; (100 μM) 91+5% of Control.

As for `O=S(=O)(O)c1cc2c(O)c(c1)Cc1cc(S(=O)(=O)O)cc(c1O)Cc1cc(S(=O)(=O)O)cc(c1O)Cc1cc(S(=O)(=O)O)cc(c1O)Cc1cc(S(=O)(=O)O)cc(c1O)Cc1cc(S(=O)(=O)O)cc(c1O)Cc1cc(S(=O)(=O)O)cc(c1O)Cc1cc(S(=O)(=O)O)cc(c1O)C2` [GI-2041], the Ribonucleoside reductase is 127+5% of Control (25 μM) and 127+6% of Control (50 μM).
